Results from ChEMBL document CHEMBL1127541, “3,4-Dihydro-3-amino-2H-1-benzopyran derivatives as 5-HT1A receptor ligands and potential anxiolytic agents. 1. Synthesis and structure--activity relationship studies” (J Med Chem, 1994).

Columns and labels:
[1] = biological target: T1, Alpha-1A adrenergic receptor (Bos taurus, UniProt P18130); experiment: Binding affinity against alpha-1 adrenergic receptor in calf frontal cortex; assay type: tissue-based
T1 sequence (P18130 whole entry): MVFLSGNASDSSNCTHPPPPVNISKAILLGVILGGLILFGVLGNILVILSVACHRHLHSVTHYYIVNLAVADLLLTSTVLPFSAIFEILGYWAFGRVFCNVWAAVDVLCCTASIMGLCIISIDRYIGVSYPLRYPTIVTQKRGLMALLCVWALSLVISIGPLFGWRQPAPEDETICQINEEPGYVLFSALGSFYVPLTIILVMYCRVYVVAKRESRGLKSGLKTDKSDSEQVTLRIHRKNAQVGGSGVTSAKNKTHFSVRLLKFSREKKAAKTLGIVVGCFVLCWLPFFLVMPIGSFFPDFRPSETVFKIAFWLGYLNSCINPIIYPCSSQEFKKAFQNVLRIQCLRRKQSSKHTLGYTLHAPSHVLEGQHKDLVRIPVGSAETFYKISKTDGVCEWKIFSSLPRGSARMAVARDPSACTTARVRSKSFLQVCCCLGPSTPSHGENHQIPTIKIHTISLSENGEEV

[2] = biological target: T2, Alpha-2A adrenergic receptor (Bos taurus, UniProt Q28838); experiment: Binding affinity against alpha-2 adrenergic receptor in calf frontal cortex; assay type: tissue-based
T2 sequence (Q28838 whole entry): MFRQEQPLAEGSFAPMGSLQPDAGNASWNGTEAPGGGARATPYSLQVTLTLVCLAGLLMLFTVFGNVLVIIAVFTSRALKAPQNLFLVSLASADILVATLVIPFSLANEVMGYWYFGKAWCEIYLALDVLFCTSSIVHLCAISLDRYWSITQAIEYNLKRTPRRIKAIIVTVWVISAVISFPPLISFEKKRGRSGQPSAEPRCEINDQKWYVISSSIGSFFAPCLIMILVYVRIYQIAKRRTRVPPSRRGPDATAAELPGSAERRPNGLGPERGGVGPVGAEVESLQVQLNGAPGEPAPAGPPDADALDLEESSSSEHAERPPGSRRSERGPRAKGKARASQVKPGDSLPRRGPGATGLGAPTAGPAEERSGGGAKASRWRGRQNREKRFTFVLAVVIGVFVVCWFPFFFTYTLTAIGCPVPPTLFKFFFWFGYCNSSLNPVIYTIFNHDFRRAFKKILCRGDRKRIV

[3] = biological target: D(2) dopamine receptor (Bos taurus, UniProt P20288); experiment: Binding affinity against D2 receptor in calf caudate nucleus
D(2) dopamine receptor, sequence (P20288 whole entry): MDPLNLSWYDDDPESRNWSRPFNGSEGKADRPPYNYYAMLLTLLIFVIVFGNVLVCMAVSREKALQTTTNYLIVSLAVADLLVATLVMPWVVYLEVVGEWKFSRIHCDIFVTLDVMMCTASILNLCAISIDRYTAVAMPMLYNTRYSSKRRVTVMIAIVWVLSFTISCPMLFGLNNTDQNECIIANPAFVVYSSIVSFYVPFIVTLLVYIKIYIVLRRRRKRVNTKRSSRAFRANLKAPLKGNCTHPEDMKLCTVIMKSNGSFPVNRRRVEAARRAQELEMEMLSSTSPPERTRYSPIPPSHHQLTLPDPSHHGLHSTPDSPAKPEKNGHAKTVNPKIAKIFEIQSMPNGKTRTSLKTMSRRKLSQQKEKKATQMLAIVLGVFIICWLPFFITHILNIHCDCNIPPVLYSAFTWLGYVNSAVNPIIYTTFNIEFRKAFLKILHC

[4] = biological target: 5-hydroxytryptamine receptor 1B (Rattus norvegicus, UniProt P28564); experiment: Binding affinity for 5-hydroxytryptamine 1B receptor in rat cortex, striatum and globus pallidus; assay type: tissue-based
5-hydroxytryptamine receptor 1B, sequence (P28564 whole entry): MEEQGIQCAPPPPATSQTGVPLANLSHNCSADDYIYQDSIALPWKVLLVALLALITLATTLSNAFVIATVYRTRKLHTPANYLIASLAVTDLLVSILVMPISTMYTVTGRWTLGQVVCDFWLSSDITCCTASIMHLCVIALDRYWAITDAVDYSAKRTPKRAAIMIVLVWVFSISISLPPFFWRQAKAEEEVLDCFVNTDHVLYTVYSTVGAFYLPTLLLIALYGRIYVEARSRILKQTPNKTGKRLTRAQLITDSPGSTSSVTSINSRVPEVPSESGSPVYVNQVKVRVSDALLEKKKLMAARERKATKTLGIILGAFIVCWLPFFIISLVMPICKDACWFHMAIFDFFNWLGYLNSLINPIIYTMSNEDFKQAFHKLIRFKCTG

[5] = biological target: 5-hydroxytryptamine receptor 2A (Bos taurus, UniProt Q75Z89); experiment: Binding affinity towards 5-hydroxytryptamine 2 receptor in calf frontal cortex; assay type: tissue-based
5-hydroxytryptamine receptor 2A, sequence (Q75Z89 whole entry): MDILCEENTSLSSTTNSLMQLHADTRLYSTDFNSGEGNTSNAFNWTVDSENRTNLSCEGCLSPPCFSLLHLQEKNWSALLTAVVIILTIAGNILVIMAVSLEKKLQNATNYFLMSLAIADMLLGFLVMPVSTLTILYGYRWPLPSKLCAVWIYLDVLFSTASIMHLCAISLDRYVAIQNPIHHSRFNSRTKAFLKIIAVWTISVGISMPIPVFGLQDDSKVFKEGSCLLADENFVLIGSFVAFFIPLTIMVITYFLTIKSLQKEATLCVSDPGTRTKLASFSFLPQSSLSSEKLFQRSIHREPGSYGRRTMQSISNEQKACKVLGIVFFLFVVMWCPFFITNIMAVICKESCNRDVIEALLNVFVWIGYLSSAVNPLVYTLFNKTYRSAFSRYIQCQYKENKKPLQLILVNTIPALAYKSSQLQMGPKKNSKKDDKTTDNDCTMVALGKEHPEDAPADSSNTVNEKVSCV

[6] = biological target: T3, 5-hydroxytryptamine receptor 1A (Rattus norvegicus, UniProt P19327); experiment: Binding affinity against 5-hydroxytryptamine 1A (5-HT1A) receptor in rat hippocampus membranes; assay type: cell membranes, Membrane
T3 sequence (P19327 whole entry): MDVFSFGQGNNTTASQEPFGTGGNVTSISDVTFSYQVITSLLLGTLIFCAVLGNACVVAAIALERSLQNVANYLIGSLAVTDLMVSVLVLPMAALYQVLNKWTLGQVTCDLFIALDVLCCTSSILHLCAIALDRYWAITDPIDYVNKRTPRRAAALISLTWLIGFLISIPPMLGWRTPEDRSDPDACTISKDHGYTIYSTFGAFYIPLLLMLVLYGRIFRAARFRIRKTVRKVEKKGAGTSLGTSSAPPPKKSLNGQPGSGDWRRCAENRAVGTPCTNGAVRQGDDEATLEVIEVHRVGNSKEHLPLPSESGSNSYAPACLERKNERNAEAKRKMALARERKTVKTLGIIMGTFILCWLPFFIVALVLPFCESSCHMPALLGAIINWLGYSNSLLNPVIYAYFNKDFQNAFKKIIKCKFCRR

[7] = biological target: D(1A) dopamine receptor (Bos taurus, UniProt Q95136); experiment: Binding affinity towards dopamine receptor D1 in calf striatum; assay type: tissue-based
D(1A) dopamine receptor, sequence (Q95136 whole entry): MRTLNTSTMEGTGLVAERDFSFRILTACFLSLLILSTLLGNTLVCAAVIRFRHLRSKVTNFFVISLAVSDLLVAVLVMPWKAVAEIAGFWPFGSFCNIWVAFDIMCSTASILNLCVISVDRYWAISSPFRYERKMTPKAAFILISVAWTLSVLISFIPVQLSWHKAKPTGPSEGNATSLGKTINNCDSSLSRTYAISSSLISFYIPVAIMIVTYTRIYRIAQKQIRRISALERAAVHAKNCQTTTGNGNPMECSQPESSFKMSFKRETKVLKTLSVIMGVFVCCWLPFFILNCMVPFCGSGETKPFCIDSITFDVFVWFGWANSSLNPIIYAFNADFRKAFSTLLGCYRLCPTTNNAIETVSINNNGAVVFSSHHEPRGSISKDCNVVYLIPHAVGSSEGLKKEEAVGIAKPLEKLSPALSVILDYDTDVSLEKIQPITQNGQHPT

[8] = system: Mus musculus; experiment: The in vivo compartmental activity was evaluated as minimum significant active dose measured by Forepaw treading test; assay type: functional
[9] = Inhibitory concentration of compound was tested as agonist activity against forskolin activated adenylate cyclase; assay type: functional
[10] = system: Mus musculus; experiment: The in vivo compartmental activity was evaluated as minimum significant active dose measured by Dark/light box test; assay type: functional
[11] = system: Mus musculus; experiment: The in vivo compartmental activity was evaluated as minimum significant active dose measured by lower lip retraction test; assay type: functional
[12] = species on record: Mus musculus; experiment: Inhibitory concentration of compound was tested as agonist activity against DRN firing in the dorsal raphe nucleus; assay type: functional, organism-based
[13] = system: Mus musculus; experiment: The in vivo compartmental activity was evaluated as minimum significant active dose measured by punishment test; assay type: functional
[14] = system: Mus musculus; experiment: The in vivo compartmental activity was evaluated as minimum significant active dose measured by Drug discrimination test; assay type: functional

| SMILES | IC50 [1] | IC50 [2] | IC50 [3] | IC50 [4] | IC50 [5] | IC50 [6] | IC50 [7] | FPT msad [8] | IC50 [9] | DLBT [10] | LLR msad [11] | IC50 [12] | Punishment test msad [13] | DDT msad [14] |
| --- | --- | --- | --- | --- | --- | --- | --- | --- | --- | --- | --- | --- | --- | --- |
| CCCN(CCC)C1COc2ccccc2C1 (stereo unspecified) | > 1000 µM | 20 µM | 0.06 µM | > 1000 µM | 80 µM | 0.4 µM | > 1000 µM |  |  |  |  |  |  |  |
| CCCN(CCNC(C)=O)C1COc2cccc(OC)c2C1 (stereo unspecified) | > 1000 µM | 10 µM | 0.6 µM | 60 µM | > 1000 µM | 0.04 µM | > 1000 µM |  |  |  |  |  |  |  |
| CCCN(CCCCN1C(=O)CC2(CCCC2)CC1=O)C1COc2cccc(O)c2C1 (stereo unspecified) | 10 µM | 20 µM | 0.008 µM | 30 µM | 4 µM | 0.001 µM | 100 µM |  |  |  |  |  |  |  |
| CCCN(CCC)C1COc2cccc(O)c2C1 (stereo unspecified) | 100 µM | 2 µM | 0.4 µM | > 100 µM | > 100 µM | 0.004 µM | 100 µM |  |  |  |  |  |  |  |
| COc1cccc2c1CC(N1CCCC1)CO2 (stereo unspecified) | 40 µM | 3 µM | 2.5 µM | 100 µM | 60 µM | 0.007 µM | 1000 µM |  |  |  |  |  |  |  |
| CCCN(CCCCNC(=O)c1ccc(F)cc1)C1COc2cccc(OC)c2C1 (stereo unspecified) | 2 µM | 4 µM | 0.007 µM | 3 µM | 3 µM | 0.0004 µM | 20 µM |  |  |  |  |  |  |  |
| CCCN(CCN1C(=O)CC2(CCCC2)CC1=O)C1COc2cccc(OC)c2C1 (stereo unspecified) | > 1000 µM | > 1000 µM | 3 µM | > 1000 µM | > 1000 µM | 0.03 µM | > 1000 µM |  |  |  |  |  |  |  |
| CCCN(CCCCN1C(=O)c2ccccc2C1=O)C1COc2cccc(OC)c2C1 (stereo unspecified) | 5 µM | 2 µM | 0.03 µM | 0.4 µM | 30 µM | 0.05 µM | 40 µM |  |  |  |  |  |  |  |
| CCCN(CCC)C1COc2ccc3ccccc3c2C1 (stereo unspecified) | 2 µM | 10 µM | 0.1 µM | 30 µM | 10 µM | 20 µM | 40 µM |  |  |  |  |  |  |  |
| CCCN(CCCN1C(=O)c2ccccc2C1=O)C1COc2cccc(OC)c2C1 (stereo unspecified) | 4 µM | 1 µM | 0.08 µM | 3 µM | 8 µM | 0.1 µM | 40 µM |  |  |  |  |  |  |  |
| CCCN(CCC)C1COc2cccc(OC)c2C1 (single isomer, unassigned; (+)) | 2.3 µM | 9.1 µM | 0.14 µM | 0.51 µM | 9.7 µM | 0.002 µM | > 1000 µM |  |  |  |  |  |  |  |
| CCCN(CCCCNS(=O)(=O)c1ccc(C)cc1)C1COc2cccc(OC)c2C1 (single isomer, unassigned; (+)) | 3 µM | 2 µM | 0.1 µM | 9 µM | 8 µM | 0.0007 µM | 20 µM |  |  |  |  |  |  |  |
| CCCN(CCCCN1C(=O)CC2(CCCC2)CC1=O)C1COc2cccc(OC)c2C1.O=C(O)C(=O)O (single isomer, unassigned; (+)) | 40 µM | 0.02 µM | 3 µM | 10 µM | 3 µM | 0.0003 µM | 40 µM | 8 mg/kg | 0.0102 µM | 1 mg/kg | 4 mg/kg | ~0.006 µM | 0.03 mg/kg | 0.1 mg/kg |
| CCCN(CCCCN1C(=O)C2CCCC2C1=O)C1COc2cccc(OC)c2C1 (single isomer, unassigned; (+)) | 3 µM | 5 µM | 0.1 µM | 10 µM | 10 µM | 0.008 µM | 50 µM |  |  |  |  |  |  |  |
| CCCN(CCNS(=O)(=O)c1ccc(C)cc1)C1COc2cccc(OC)c2C1 (single isomer, unassigned; (+)) | 100 µM | 50 µM | 0.5 µM | > 1000 µM | > 1000 µM | 0.008 µM | 100 µM |  |  |  |  |  |  |  |
| CCCN(CCCCNS(=O)(=O)c1ccc(C)cc1)C1COc2cccc(OC)c2C1 (single isomer, unassigned; (-)) | 7 µM | 2 µM | 0.06 µM | 20 µM | 5 µM | 0.02 µM | 20 µM |  |  |  |  |  |  |  |
| CCCN(CCCCN1C(=O)C2CCCC2C1=O)C1COc2cccc(OC)c2C1 (single isomer, unassigned; (-)) | 8 µM | 5 µM | 0.01 µM | 30 µM | 3 µM | 0.001 µM | 30 µM |  |  |  |  |  |  |  |
| CCCN(CCC)C1COc2cccc(OC)c2C1 (stereo in doubt; 4) | 80 µM | 4 µM | 0.05 µM | 20 µM | 60 µM | 0.02 µM | 100 µM |  |  |  |  |  |  |  |
| CCCN(CCCCN1C(=O)CC2(CCCC2)CC1=O)C1COc2cccc(OC)c2C1.O=C(O)C(=O)O (stereo in doubt; 9g) | 6 µM | 10 µM | 0.01 µM | 5 µM | 1 µM | 0.0002 µM | 40 µM |  | 0.0263 µM | 2 mg/kg |  |  | 0.06 mg/kg | 0.3 mg/kg |
| CCCN(CCCCN1C(=O)C2CCCC2C1=O)C1COc2cccc(OC)c2C1 (stereo in doubt; 9k) | 7 µM | 5 µM | 0.02 µM | 20 µM | 9 µM | 0.002 µM | 40 µM |  |  |  |  |  |  |  |
| CCCN(CCNS(=O)(=O)c1ccc(C)cc1)C1COc2cccc(OC)c2C1 (stereo in doubt; 15b) | 100 µM | > 1000 µM | 0.1 µM | > 1000 µM | 1 µM | 0.002 µM | 50 µM |  |  |  |  |  |  |  |
| CCCN(CCCCNS(=O)(=O)c1ccc(C)cc1)C1COc2cccc(OC)c2C1 (stereo in doubt; 15d) | 3 µM | 10 µM | 0.2 µM | 8 µM | 10 µM | 0.002 µM | 30 µM |  |  |  |  |  |  |  |
| CCCN(CCC)C1COc2cccc(OC)c2C1 (stereo in doubt; (-)-4) | 3.5 µM | 0.78 µM | 0.21 µM | 1 µM | 4 µM | 0.001 µM | > 1000 µM |  |  |  |  |  |  |  |
| CCCN(CCNS(=O)(=O)c1ccc(C)cc1)C1COc2cccc(OC)c2C1 (stereo in doubt; (-)-15b) | 1000 µM | 10 µM | 0.05 µM | > 1000 µM | 10 µM | 0.005 µM | 60 µM |  |  |  |  |  |  |  |
| O=C1c2ccccc2S(=O)(=O)N1CCCCN1CCN(c2ncccn2)CC1 [IPSAPIRONE] | 1.2 µM | 2.8 µM | > 1000 µM | 50 µM | 7.5 µM | 0.035 µM | 12 µM |  |  |  |  |  |  |  |
